This is an account of results in publication PMC7154662, “Structural Insight into IAPP‐Derived Amyloid Inhibitors and Their Mechanism of Action” (Angewandte Chemie (International Ed. in English), 2020).

Non-standard residues stand in square brackets, D forms with d. Residues, ends and D or L forms follow the SMILES beside them. NMeI = CC[C@H](C)[C@H](NC)C(=O)O; Sar = CNCC(=O)O

The experiment concerns the target T1, R3-GI (Homo sapiens, UniProt P10997, N54R/S52R/S53R).
T1 construct: linking the two hot segments IAPP(8–18) and IAPP(22–28) in native or N‐methylated form; made in house; host or cells: chemical solid phase peptide synthesis (no expression host)
Description: Fluorescence titration: self-association of Fluos-R3-GI with R3-GI. To be noted: Fluos-R3-GI 5 nM titrated with R3-GI; 10 mM sodium phosphate buffer, pH 7.4 (1% HFIP); room temperature, 2-5 min after solution preparation; excitation 492 nm; means (±SEM) from three binding curves; read-out: app. Kd for R3-GI self-association. An excerpt:
Figure 1 R3‐GI self‐assembly. […] On the right, the binding curve is shown. The estimated app. […] Data are means (±SEM) from three binding curves. […] Scale bar: 10 μm.
The sampling of the 12 replicas was combined resulting in the ensemble of conformations were the statistical weight of each conformation is obtained by a simple reweighting scheme based on the final metadynamics bias B. The weight of a conformation X is given by w=exp(+B(X)/kBT), consistently with the quasi static behavior at convergence of well- […]
Coarse-grained modelling of R3-GI oligomers
To investigate the interaction of the peptides with each other, over 100 μs of coarse grain simulations were performed using GROMACS. An initial peptide model was created based on a representative structure from the atomistic ensemble. The Martini 2.2 force field was used to describe the peptide interaction together with the standard Martini water model.
Additionally, an elastic network was applied to conserve structural information. […]
Fluorescence spectroscopic titrations
A JASCO FP-6500 fluorescence spectrophotometer was used and titrations were performed as previously described. Briefly, excitation was at 492 nm and fluorescence emission spectra were recorded between 500 and 600 nm. […]
temperature within 2-5 min following solution preparation. The determined app. […]

T1 sequence (P10997 41-61 S52R/S53R/N54R): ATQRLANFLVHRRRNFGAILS

On to `CC[C@H](C)[C@@H](C(=O)N[C@@H](CC(C)C)C(=O)N[C@@H](CO)C(N)=O)N(C)C(=O)[C@H](C)NC(=O)CN(C)C(=O)[C@H](Cc1ccccc1)NC(=O)[C@H](CC(N)=O)NC(=O)[C@H](CCCNC(=N)N)NC(=O)[C@H](CCCNC(=N)N)NC(=O)[C@H](CCCNC(=N)N)NC(=O)[C@H](Cc1c[nH]cn1)NC(=O)[C@@H](NC(=O)[C@H](CC(C)C)NC(=O)[C@H](Cc1ccccc1)NC(=O)[C@H](CC(N)=O)NC(=O)[C@H](C)NC(=O)[C@H](CC(C)C)NC(=O)[C@H](CCCNC(=N)N)NC(=O)[C@H](CCC(N)=O)NC(=O)[C@@H](NC(=O)[C@H](C)N)[C@@H](C)O)C(C)C` [R3-GI] (H-ATQRLANFLVHRRRNF[Sar]A[NMeI]LS-NH2), for which the Kd stood at 77.1 nM.
